Reference: patent US20210315893A1 (Galapagos NV, priority 2017, published 2021)

Tests used:
[1] = biological target: T1, human GPCR sphingosine 1-phosphate receptor 2 (Homo sapiens, UniProt O95136); assay: S1PR2 antagonist Ca2+ flux assay; format: cell-based; settings: antagonist mode, CHO-S1PR2 cells, S1P at EC80, Ca2+ fluorescence; read-out: S1P2 EC50 (nM), S1P2 antagonist EC50
T1 construct: host or cells: CHO
Method in brief: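 CHO cells stably expressing human S1PR2, serum-starved 1 h, Fluo8-loaded; compound-evoked Ca2+ fluorescence read 3 min (agonist mode), then after 15 min S1P at EC80 added and read 3 min (antagonist mode). Max/baseline fluorescence ratios normalised to vehicle and S1P EC100 or EC50 controls; EC50 derived.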

[2] = biological target: T2, human GPCR sphingosine 1-phosphate receptor 1 (Homo sapiens, UniProt P21453); assay: S1PR1 selectivity Ca2+ flux assay (antagonist readout); format: cell-based; settings: antagonist readout, CHO cells overexpressing human S1PR1 and Gq, S1P at EC80 (6 nM); read-out: S1P1 EC50 (nM), S1P1 antagonist EC50
T2 construct: host or cells: CHO
T2 sequence (P21453 whole entry): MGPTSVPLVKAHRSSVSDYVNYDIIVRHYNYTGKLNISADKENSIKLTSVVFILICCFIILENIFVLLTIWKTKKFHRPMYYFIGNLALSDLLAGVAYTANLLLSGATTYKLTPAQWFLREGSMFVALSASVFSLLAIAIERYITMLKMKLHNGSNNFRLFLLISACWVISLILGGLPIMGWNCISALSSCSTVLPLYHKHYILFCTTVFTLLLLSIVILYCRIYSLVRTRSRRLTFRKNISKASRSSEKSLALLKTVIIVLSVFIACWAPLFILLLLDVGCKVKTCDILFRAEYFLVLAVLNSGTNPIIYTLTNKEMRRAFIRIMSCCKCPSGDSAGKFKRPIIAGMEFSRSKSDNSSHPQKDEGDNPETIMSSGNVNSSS
Method in brief: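 CHO cells stably overexpressing human S1PR1, starved 1 h in 0.1% FAF BSA medium, then Fluo 8 dye-loaded. Compound added, then after 15 min at 37 °C, S1P-evoked Ca2+ flux recorded. Maximal signal/background ratio normalized to controls as % inhibition; IC50 from four-parameter logistic fit.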

[3] = biological target: T3, human GPCR sphingosine 1-phosphate receptor 5 (Homo sapiens, UniProt Q9H228); assay: S1PR5 selectivity Ca2+ flux assay (antagonist readout); format: cell-based; settings: CHO cells overexpressing human S1PR5 and Gq, agonist at EC80 (20 nM), read-out: S1P5 EC50 (nM), S1P5 antagonist EC50
T3 construct: host or cells: CHO
T3 sequence (Q9H228 whole entry): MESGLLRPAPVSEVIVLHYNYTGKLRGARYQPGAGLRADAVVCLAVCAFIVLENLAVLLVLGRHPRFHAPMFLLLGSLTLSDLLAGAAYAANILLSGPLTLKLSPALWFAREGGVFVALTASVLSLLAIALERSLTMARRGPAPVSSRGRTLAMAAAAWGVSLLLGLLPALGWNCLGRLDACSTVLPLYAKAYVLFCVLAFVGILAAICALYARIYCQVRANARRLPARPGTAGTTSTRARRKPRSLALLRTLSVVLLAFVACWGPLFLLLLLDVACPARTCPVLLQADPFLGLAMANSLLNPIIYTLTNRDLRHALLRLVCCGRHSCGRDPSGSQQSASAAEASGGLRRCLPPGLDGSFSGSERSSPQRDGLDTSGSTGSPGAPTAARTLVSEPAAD
Description: To evaluate the selectivity of the compounds for S1PR2 over S1PR1 and S1PR5, asimilar assay set upas described above for theS1PR2 calcium flux assays waspeformed: CHO cells stably overexpressing human GPCR sphingosine 1-phosphate receptor 1 and Gq protein (Euroscreen, FAST-0197A) or overexpressing human GPCR sphingosine 1-phosphate receptorS5 and Gq protein were used (Perkin Elmer, ES-593-A). In case of the S1PR5 assay triggering was done with an SPR5 specific agonist instead of with S1P (Hobson et al., 2015).
50 μL of Chinese hamster ovary (CHO) cells stably overexpressing human S1PR1 or S1PR5 are seeded in 384 well sterile microplates (7,500 cells/well or 10,000 cells/well respectively) and are incubated overnight at 37° C. under 5% CO2. Cells are subsequently washed twice with 25 μL/well of starvation medium (F-12 Ham's medium containing 0.1% fatty acid free bovine serum albumin (FAF BSA)). After one h starvation at 37° C., 5% CO2, cells are loaded with 25 μL of Fluo 8 dye diluted in Hank's balanced salt solution (HBSS) with 20 mM Hepes complemented with 5 mM of probenecid following the recommendations of the manufacturer (one h at 37° C., 5% CO2). Dilution series of compounds are prepared in HBSS buffer with 20 mM Hepes and 0.1% BSA (FAF). 10 μL of diluted compound is added to the cells using the FDSS/pCELL and intracellular calcium changes are measured immediately by recording fluorescence during 3 min (agonist readout). The ratio of maximal signal over background before compound injection is used to determine compound response.
After an incubation of 15 min at 37° C., following the agonist readout, the plates are transferred to the FDSS/pCELL reader. Cells are stimulated with 10 μL of EC80 concentration of S1P (6 nM for S1P1 and 20 nM for S1P5) and intracellular calcium changes are measured immediately by recording fluorescence during three min (antagonist readout). The ratio of maximal signal over background before S1P injection was used to determine the inhibitory effect ofthe compound.
Raw data obtained in each experiment (ratio of maximal signal over background for calcium mobilization assays) were normalized in percentage of activation (agonist mode) or inhibition (antagonist mode) using positive and negative experiment controls. Each individual plate quality was assessed by evaluation of Z′ factor calculated with raw data using the following equation
Y=bottom+(top−bottom)/(1+(10^(Log IC50−X)*Hillslope)) where X is the logarithm of the concentration of the compound

[4] = biological target: T4, S1PR2 (Homo sapiens, UniProt O95136); assay: S1PR2 binding assay (competition with radioactively labeled S1P, SpA); settings: membranes from stable cell line over expressing S1PR2, SpA beads; read-out: S1P2 EC50 (nM), S1PR2 binding EC50
T4 construct: expressed in transfected cells
T4 sequence (O95136 whole entry): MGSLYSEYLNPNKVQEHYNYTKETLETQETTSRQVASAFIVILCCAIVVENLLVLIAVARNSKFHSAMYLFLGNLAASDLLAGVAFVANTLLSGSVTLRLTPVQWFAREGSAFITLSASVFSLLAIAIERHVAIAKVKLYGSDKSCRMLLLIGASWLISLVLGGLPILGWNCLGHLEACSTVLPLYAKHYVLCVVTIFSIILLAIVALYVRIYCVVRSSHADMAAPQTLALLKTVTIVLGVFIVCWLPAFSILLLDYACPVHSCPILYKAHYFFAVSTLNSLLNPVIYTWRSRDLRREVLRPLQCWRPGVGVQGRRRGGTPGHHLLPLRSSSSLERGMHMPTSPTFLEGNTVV
Method in brief: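 Competition with [3H]S1P for membranes from a stable S1PR2-overexpressing cell line, 20 μg/well, captured on PVT-WGA SPA beads, in 20 mM Tris pH 7.5, 10 mM MgCl2, 100 mM NaCl, 0.4% fatty-acid-free BSA, 1 mM Na3VO4. 2 h at room temperature, then centrifugation and scintillation counting.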

[5] = system: HFL-1 cells; assay: IL-8 production assay (S1P induced IL-8); format: cell-based; settings: Homo sapiens, HFL1; S1P (1 μM) induced IL-8 in HFL-1 cells, starvation medium without HSA; read-out: IL8 EC50
Method in brief: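 HFL-1 human fetal lung fibroblasts were starved in F12K/1% FBS, then given compound for 1 h (10-point, 1/3 dilution, 30 μM top, 0.3% DMSO final). S1P was added at 1 μM final for 16–24 h at 37 °C, and secreted IL-8 in supernatant quantified by ELISA.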

[6] = system: HFL-1 cells; assay: IL8 assay in the presence of Human Serum Albumin; settings: HFL1, read-out: HSA IL8 EC50

T1 sequence (O95136 whole entry): as above

Structure (SMILES) | EC50 [1] [nM] | EC50 [2] [nM] | EC50 [3] [nM] | EC50 [4] [nM] | EC50 [5] [nM] | EC50 [6] [nM]
O=c1c2ccccc2c(Cc2nc3cc(Cl)c(OC(F)(F)F)cc3[nH]2)nn1C1CC1 [Compound 25, 4-[[5-chloro-6-(trifluoromethoxy)-1H-benzimidazol-2-yl]methyl]-2-cyclopropyl-phthalazin-1-one] | 218 | 4710 | 4790 | 565 | 836 | 10000
O=c1c2ccccc2c(Cc2nc3cc(Cl)c(OCC(F)F)cc3[nH]2)nn1C1CC1 [Compound 32, 4-[[5-chloro-6-(2,2-difluoroethoxy)-1H-benzimidazol-2-yl]methyl]-2-cyclopropyl-phthalazin-1-one] | 19.3 | ≥ 19800 | 6610 | 245 | 95.7 | 2960
N#Cc1cc2nc(Cc3nn(C4CC4)c(=O)c4ccccc34)[nH]c2cc1OCC1CC1 [Compound 42, 6-(cyclopropylmethoxy)-2-[(3-cyclopropyl-4-oxo-phthalazin-1-yl)methyl]-1H-benzimidazole-5-carbonitrile] | 19.7 | ≥ 19800 | 19800 | 20.6 | 30.9 | 443
N#Cc1cc2[nH]c(Cn3nc(CC(=O)N4CCOCC4)c(=O)c4ccccc43)nc2cc1OCC(F)F [Compound 49, 6-(2,2-Difluoro-ethoxy)-2-[3-(2-morpholin-4-yl-2-oxo-ethyl)-4-oxo-4H-cinnolin-1-ylmethyl]-3H-enzoimidazole-5-carbonitrile] | 32.8 | ≥ 19800 | 19800 | 92.7 | 31.7 | 47.1
O=C(Cc1nn(Cc2nc3cc(OCC(F)F)c(F)cc3[nH]2)c2ccccc2c1=O)N1CCOCC1 [Compound 50, 1-[5-(2,2-Difluoro-ethoxy)-6-fluoro-1H-benzoimidazol-2-ylmethyl]-3-(2-morpholin-4-yl-2-oxo-ethyl)-1H-cinnolin-4-one] | 195 | ≥ 19800 | 19800 | 267 | 246 | 365
COCCOc1cc2nc(Cc3nn(CC(=O)N4CCOCC4)c(=O)c4ccccc34)[nH]c2cc1C#N [Compound 51, 6-(2-methoxyethoxy)-2-[[3-(2-morpholino-2-oxo-ethyl)-4-oxo-phthalazin-1-yl]methyl]-3H-benzimidazole-5-carbonitrile] | 77.3 | ≥ 19800 | 19800 | 366 | 177 | 291
O=C(O)Cn1nc(Cn2cc3cc(OCC4CC4)c(Cl)cc3n2)c2ccccc2c1=O [Compound 114, 2-[4-[[6-chloro-5-(cyclopropylmethoxy)indazol-2-yl]methyl]-1-oxo-phthalazin-2-yl]acetic acid] |  | ≥ 19900 | 627 |  | 32.4 | 1660
O=C(O)Cn1nc(Cc2nc3cc(Cl)c(OCC(F)F)cc3[nH]2)c2ccccc2c1=O [Compound 118, 2-[4-[[5-chloro-6-(2,2-difluoroethoxy)-1H-benzimidazol-2-yl]methyl]-1-oxo-phthalazin-2-yl]acetic acid] |  | ≥ 19800 | 19800 |  | 25.5 | 95.2
O=C(O)Cn1nc(Cc2nc3cc(OCC4CC4)c(C(F)(F)F)cc3[nH]2)c2ccccc2c1=O [Compound 123, 2-[4-[[5-(cyclopropylmethoxy)-6-(trifluoromethyl)-1H-benzimidazol-2-yl]methyl]-1-oxo-phthalazin-2-yl]acetic acid] |  | 1840 | 19800 |  | 1.76 | 25.9
O=C(O)Cn1nc(Cc2nc3cc(OCC4CC4)c(F)cc3[nH]2)c2ccccc2c1=O [Compound 124, 2-[4-[[5-(cyclopropylmethoxy)-6-fluoro-1H-benzimidazol-2-yl]methyl]-1-oxo-phthalazin-2-yl]acetic acid] |  | 13200 | 19800 |  | 66.6 | 446
N#Cc1cc2nc(Cc3nn(CC(=O)N4CCOCC4)c(=O)c4ccccc34)[nH]c2cc1OCC(F)F [Compound 171, 6-(2,2-difluoroethoxy)-2-[[3-(2-morpholino-2-oxo-ethyl)-4-oxo-phthalazin-1-yl]methyl]-1H-benzimidazole-5-carbonitrile] | 30 | ≥ 19800 | 19800 |  | 23.1 | 44.9
N#Cc1cc2[nH]c(Cc3nn(CC4CCCN4)c(=O)c4ccccc34)nc2cc1OCC(F)F (stereo not shown) [compound 1, 6-(2,2-difluoro-ethoxy)-2-[[4-oxo-3-(pyrrolidin-2-ylmethyl)-phthalazin-1-yl]-methyl]-3H-benzimidazole-5-carbonitrile] |  | ≥ 19800 | 19800 | 3930 | 3320 | 15600
CC(C(=O)O)c1nn(Cc2cn3cc(OCC4CC4)c(Cl)cc3n2)c2ccccc2c1=O (stereo not shown) [compound 4, 2-[1-[[7-chloro-6-(cyclopropyl-methoxy)imidazo-[1,2-a]pyridin-2-yl]methyl]-4-oxo-cinnolin-3-yl]propanoic acid] |  | ≥ 19800 | 19800 |  | 1.64 | 19.2
C[C@H](C(=O)O)n1nc(Cn2cc3cc(OCC4CC4)c(Cl)cc3n2)c2ccccc2c1=O [compound 17, ((2R)-2-[4-[[6-chloro-5-(cyclo-propylmethoxy)-indazol-2-yl]-methyl]-1-oxo-phthalazin-2-yl]-propanoic acid)] |  | 8810 | 19800 |  | 3.02 | 211
C[C@@H](C(=O)O)n1nc(Cn2cc3cc(OCC4CC4)c(Cl)cc3n2)c2ccccc2c1=O [compound 18, (2S)-2-[4-[[6-chloro-5-(cyclo-propylmethoxy)-indazol-2-yl]-methyl]-1-oxo-phthalazin-2-yl]propanoic acid] |  | ≥ 19800 | 19800 |  | 210 | 22500
C[C@H](C(=O)O)c1nn(Cc2cn3cc(OCC4CC4)c(Cl)cc3n2)c2ccccc2c1=O [compound 19, (2S)-2-[1-[[7-chloro-6-(cyclo-propylmethoxy)-imidazo[1,2-a]-pyridin-2-yl]-methyl]-4-oxo-cinnolin-3-yl]-propanoic acid] |  | 19900 | 19900 |  | 1.29 | 18.2
C[C@@H](C(=O)O)c1nn(Cc2cn3cc(OCC4CC4)c(Cl)cc3n2)c2ccccc2c1=O [compound 20, (2R)-2-[1-[[7-chloro-6-(cyclo-propylmethoxy)-imidazo[1,2-a]pyridin-2-yl]-methyl]-4-oxo-cinnolin-3-yl]-propanoic acid] |  | ≥ 19800 | 19800 |  | 134 | 3320
